According to the kinase profiling compilation of Christmann-Franck et al. (2016):

Columns and labels:
Experiment in all cases: KINOMEscan competition binding
Conditions in all cases: compound 10.0 µM
[1] = test system: ABL1 (human), P00519 [E255K]
[2] = test system: ABL1 (human), P00519 [M351T]
[3] = test system: ABL1 (human), P00519 [Q252H]
[4] = test system: ABL1 (human), P00519 [T315I]
[5] = test system: EGFR (human), P00533 [746-750 del]
[6] = test system: EGFR (human), P00533 [G719S]
[7] = test system: EGFR (human), P00533 [L861Q]
[8] = test system: EGFR (human), P00533 [P753S; 747-752 del]
[9] = test system: EIF2AK4 KD2 (human), Q9P2K8 [S808G]
Chain of EIF2AK4 KD2 (human), Q9P2K8 [S808G] (Q9P2K8 whole entry S808G, looked up): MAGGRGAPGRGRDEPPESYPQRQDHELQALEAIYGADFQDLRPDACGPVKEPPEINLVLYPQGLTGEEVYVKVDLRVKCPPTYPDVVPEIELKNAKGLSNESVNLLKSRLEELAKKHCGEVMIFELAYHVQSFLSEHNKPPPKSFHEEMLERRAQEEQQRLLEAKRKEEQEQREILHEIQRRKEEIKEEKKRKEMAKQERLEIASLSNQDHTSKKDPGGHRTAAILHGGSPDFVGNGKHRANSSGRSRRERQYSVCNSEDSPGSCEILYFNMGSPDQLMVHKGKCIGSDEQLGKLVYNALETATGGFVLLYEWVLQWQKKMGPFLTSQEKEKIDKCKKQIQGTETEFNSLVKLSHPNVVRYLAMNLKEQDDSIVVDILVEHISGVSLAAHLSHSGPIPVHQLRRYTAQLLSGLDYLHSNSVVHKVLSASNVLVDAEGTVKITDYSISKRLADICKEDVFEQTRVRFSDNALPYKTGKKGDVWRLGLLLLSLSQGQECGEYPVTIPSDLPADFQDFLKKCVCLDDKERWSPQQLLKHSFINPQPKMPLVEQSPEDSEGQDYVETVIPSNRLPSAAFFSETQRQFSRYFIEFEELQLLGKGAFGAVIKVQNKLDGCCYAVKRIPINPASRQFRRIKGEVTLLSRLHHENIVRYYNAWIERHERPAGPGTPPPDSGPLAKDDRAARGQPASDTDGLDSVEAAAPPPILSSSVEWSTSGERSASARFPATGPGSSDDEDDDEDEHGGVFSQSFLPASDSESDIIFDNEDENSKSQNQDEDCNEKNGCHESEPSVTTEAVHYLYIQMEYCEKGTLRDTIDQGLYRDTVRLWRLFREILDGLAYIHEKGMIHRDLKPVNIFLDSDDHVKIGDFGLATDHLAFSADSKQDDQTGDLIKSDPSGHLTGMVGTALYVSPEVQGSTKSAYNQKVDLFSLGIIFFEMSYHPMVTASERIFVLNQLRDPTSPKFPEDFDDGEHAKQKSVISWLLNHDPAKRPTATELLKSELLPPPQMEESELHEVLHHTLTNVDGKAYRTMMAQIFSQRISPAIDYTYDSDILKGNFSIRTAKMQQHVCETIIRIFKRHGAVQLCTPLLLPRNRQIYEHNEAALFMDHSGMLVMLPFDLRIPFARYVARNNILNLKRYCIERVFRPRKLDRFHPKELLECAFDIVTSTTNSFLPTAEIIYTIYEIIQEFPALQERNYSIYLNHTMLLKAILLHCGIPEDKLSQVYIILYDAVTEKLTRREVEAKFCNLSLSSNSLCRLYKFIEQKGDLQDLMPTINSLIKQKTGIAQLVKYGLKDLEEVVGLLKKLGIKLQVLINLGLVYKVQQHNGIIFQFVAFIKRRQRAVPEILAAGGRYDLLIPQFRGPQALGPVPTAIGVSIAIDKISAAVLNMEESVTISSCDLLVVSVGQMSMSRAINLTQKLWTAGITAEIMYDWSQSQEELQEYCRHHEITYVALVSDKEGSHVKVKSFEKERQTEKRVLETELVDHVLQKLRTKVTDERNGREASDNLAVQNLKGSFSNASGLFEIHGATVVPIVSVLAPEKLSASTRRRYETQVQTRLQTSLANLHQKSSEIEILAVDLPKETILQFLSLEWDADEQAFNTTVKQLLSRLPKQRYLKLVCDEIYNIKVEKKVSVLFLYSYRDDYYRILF

[10] = test system: FLT3 (human), P36888 [ITD]
[11] = test system: FLT3 (human), P36888 [N841I]
[12] = test system: KIT (human), P10721 [D816V]
Chain of KIT (human), P10721 [D816V] (P10721 whole entry D816V, looked up): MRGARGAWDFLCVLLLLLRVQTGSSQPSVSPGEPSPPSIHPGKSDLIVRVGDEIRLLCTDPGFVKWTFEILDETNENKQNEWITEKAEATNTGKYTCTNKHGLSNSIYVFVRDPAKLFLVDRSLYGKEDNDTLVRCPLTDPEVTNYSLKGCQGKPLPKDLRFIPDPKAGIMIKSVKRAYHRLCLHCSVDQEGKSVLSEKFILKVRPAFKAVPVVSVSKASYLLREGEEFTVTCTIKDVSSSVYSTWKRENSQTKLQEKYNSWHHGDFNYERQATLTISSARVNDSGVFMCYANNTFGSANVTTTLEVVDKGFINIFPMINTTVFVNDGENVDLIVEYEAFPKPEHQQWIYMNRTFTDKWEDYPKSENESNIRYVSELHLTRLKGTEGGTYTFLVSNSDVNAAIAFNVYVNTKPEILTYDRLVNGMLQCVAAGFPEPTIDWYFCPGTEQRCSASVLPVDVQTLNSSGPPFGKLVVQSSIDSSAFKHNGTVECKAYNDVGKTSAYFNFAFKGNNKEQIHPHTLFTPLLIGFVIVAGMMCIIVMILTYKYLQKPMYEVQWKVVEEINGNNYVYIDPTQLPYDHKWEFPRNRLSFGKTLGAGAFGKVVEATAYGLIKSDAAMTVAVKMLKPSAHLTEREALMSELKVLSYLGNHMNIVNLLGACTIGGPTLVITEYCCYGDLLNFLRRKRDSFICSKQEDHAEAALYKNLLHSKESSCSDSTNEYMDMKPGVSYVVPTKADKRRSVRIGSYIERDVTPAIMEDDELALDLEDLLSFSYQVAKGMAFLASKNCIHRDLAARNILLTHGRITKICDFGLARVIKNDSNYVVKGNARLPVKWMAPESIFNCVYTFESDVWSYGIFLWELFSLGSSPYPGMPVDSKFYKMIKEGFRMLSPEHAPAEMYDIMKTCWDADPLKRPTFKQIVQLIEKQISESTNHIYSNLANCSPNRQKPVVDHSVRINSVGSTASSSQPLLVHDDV

[13] = test system: KIT (human), P10721 [V559D/T670I]
Chain of KIT (human), P10721 [V559D/T670I] (P10721 whole entry V559D/T670I, looked up): as the sequence (P10721 whole entry D816V, looked up) above, with V559D, T670I, V816D counted along it

[14] = test system: KIT (human), P10721 [V559D]
Chain of KIT (human), P10721 [V559D] (P10721 whole entry V559D, looked up): as the sequence (P10721 whole entry D816V, looked up) above, with V559D, V816D counted along it

[15] = test system: PIK3CA (human), P42336 [E545K]
Chain of PIK3CA (human), P42336 [E545K] (P42336 whole entry E545K, looked up): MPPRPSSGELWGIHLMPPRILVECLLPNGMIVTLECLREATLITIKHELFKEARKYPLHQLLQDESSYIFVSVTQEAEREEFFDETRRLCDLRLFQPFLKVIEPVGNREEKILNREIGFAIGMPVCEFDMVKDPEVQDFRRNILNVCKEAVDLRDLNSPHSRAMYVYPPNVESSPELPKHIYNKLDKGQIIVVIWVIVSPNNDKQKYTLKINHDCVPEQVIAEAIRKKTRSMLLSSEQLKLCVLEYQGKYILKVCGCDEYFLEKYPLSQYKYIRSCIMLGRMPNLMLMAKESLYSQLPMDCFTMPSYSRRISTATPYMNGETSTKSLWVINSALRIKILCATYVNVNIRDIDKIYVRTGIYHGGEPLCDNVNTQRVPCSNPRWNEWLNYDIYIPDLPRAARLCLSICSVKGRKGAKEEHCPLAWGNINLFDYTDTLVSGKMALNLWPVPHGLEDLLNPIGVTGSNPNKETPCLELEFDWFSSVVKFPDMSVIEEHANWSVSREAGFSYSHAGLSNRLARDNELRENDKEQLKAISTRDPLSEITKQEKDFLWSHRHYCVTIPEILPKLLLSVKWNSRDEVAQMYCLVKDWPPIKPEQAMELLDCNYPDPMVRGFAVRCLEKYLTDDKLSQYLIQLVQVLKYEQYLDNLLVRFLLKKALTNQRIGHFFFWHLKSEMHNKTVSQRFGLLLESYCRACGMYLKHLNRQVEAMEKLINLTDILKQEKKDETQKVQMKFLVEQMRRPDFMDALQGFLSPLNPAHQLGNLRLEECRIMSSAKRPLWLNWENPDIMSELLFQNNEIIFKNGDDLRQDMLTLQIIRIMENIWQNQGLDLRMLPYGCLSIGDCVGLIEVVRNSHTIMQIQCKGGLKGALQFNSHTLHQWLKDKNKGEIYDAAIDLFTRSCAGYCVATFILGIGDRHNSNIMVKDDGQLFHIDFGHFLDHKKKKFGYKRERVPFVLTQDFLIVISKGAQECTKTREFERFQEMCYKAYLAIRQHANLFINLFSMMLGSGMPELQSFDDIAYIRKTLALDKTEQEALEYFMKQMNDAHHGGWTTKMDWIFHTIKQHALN

[16] = test system: FLT3 (human), P36888 [K663Q]
[17] = test system: PIK3CA (human), P42336 [C420R]
Chain of PIK3CA (human), P42336 [C420R] (P42336 whole entry C420R, looked up): as the sequence (P42336 whole entry E545K, looked up) above, with C420R, K545E counted along it

[18] = test system: PIK3CA (human), P42336 [E545A]
Chain of PIK3CA (human), P42336 [E545A] (P42336 whole entry E545A, looked up): as the sequence (P42336 whole entry E545K, looked up) above, with K545A counted along it

[19] = test system: PIK3CA (human), P42336 [H1047Y]
Chain of PIK3CA (human), P42336 [H1047Y] (P42336 whole entry H1047Y, looked up): as the sequence (P42336 whole entry E545K, looked up) above, with K545E, H1047Y counted along it

[20] = test system: PIK3CA (human), P42336 [I800L]
Chain of PIK3CA (human), P42336 [I800L] (P42336 whole entry I800L, looked up): as the sequence (P42336 whole entry E545K, looked up) above, with K545E, I800L counted along it

[21] = test system: PIK3CA (human), P42336 [Q546K]
Chain of PIK3CA (human), P42336 [Q546K] (P42336 whole entry Q546K, looked up): as the sequence (P42336 whole entry E545K, looked up) above, with K545E, Q546K counted along it

Row | Compound | kinase still bound, per cent of control [1] | kinase still bound, per cent of control [2] | kinase still bound, per cent of control [3] | kinase still bound, per cent of control [4] | kinase still bound, per cent of control [5] | kinase still bound, per cent of control [6] | kinase still bound, per cent of control [7] | kinase still bound, per cent of control [8] | kinase still bound, per cent of control [9] | kinase still bound, per cent of control [10] | kinase still bound, per cent of control [11] | kinase still bound, per cent of control [12] | kinase still bound, per cent of control [13] | kinase still bound, per cent of control [14] | kinase still bound, per cent of control [15] | kinase still bound, per cent of control [16] | kinase still bound, per cent of control [17] | kinase still bound, per cent of control [18] | kinase still bound, per cent of control [19] | kinase still bound, per cent of control [20] | other results
1 | COc1ccc(N(C(=O)Oc2cc(C(=O)Nc3cccc(C(F)(F)F)c3)ccc2C)c2ccnc(Nc3ccc(N4CCN(C)CC4)cc3)n2)c(OC)c1 | 7.2% | 1.4% | 1.8% | 0.45% | 6.1% | 18% | 1% | 2.5% | 100% | 100% | 29% | 0.75% | 3.8% | 0.5% | 100% |  |  |  |  |  | 
2 | C=CC(=O)Nc1ccc(CN(C(=O)Nc2c(Cl)c(OC)cc(OC)c2Cl)c2cc(Nc3ccc(N4CCN(C)CC4)cc3)ncn2)cc1 | 100% | 16% | 14% | 6.4% | 0.6% | 0.15% | 0.1% | 0.45% | 1.5% | 100% | 8.4% | 7.2% | 29% | 0.1% | 100% | 21% |  |  |  |  | 
3 | Cc1n[nH]c2ccc(-c3cncc(OC[C@@H](N)Cc4c[nH]c5ccccc45)c3)cc12 | 100% | 100% | 100% | 100% |  |  |  |  | 100% | 0.1% | 0.1% | 1.1% | 100% | 100% | 100% | 3.8% |  |  |  |  | 
4 | COc1cc(C)c(Sc2cnc(NC(=O)c3ccc(CNC(C)C(C)C)cc3)s2)cc1C(=O)N1CCN(C(C)=O)CC1 (stereo unspecified) | 100% | 100% | 100% | 19% | 100% | 100% | 100% | 100% | 100% | 100% | 16% | 100% | 100% | 100% | 100% | 100% |  |  |  |  | 
5 | CN(C)C/C=C/C(=O)Nc1ccc(C(=O)Nc2cccc(Nc3nccc(-c4cccnc4)n3)c2)cc1 | 29% | 29% |  |  | 100% | 97% | 56% | 96% | 97% | 30% | 31% | 30% | 10% | 0.5% | 100% | 34% | 100% | 100% | 100% | 60% | kinase still bound, per cent of control [21]: 100%
6 | COc1cc2c(Nc3ccc(NC(=O)c4ccccc4)cc3)ncnc2cc1OCCCN1CCOCC1 | 45% | 32% |  |  | 36% | 0.5% | 6.2% | 41% | 43% | 45% | 6% | 42% | 1.9% | 0% | 98% | 4% | 68% | 19% | 24% | 100% | kinase still bound, per cent of control [21]: 17%
7 | O=C1NC(=O)/C(=C/c2ccc3nccc(-c4ccncc4)c3c2)S1 | 71% | 56% |  |  | 81% | 78% | 87% | 74% | 7.4% | 47% | 39% | 63% | 76% | 30% | 0.75% | 37% | 0.4% | 0.1% | 0.9% | 12% | kinase still bound, per cent of control [21]: 1.3%
8 | O=C(Nc1cccc(Nc2ncc(Br)c(NCCc3cnc[nH]3)n2)c1)N1CCCC1 | 0.15% | 0.5% |  |  | 62% | 51% | 75% | 63% | 0.7% | 0% | 0% | 0.15% | 2.3% | 0.05% | 100% | 0.1% | 81% | 94% | 62% | 100% | kinase still bound, per cent of control [21]: 46%
9 | COc1cc(N2CCC(C(N)=O)CC2)ccc1Nc1nc(N)c(Cl)c(Nc2ccccc2S(=O)(=O)C(C)C)n1 | 100% | 100% | 100% | 100% | 0% | 21% | 0.3% | 2.9% | 100% | 20% | 13% | 24% | 100% | 100% | 100% | 100% |  |  |  |  | 
10 | O=c1[nH]c2ccccc2n1C1CCN(Cc2ccc(-c3nc4cc5[nH]cnc5cc4nc3-c3ccccc3)cc2)CC1 | 93% | 78% |  |  | 80% | 83% | 66% | 73% | 100% | 60% | 61% | 79% | 100% | 100% | 69% | 56% | 62% | 95% | 100% | 51% | kinase still bound, per cent of control [21]: 80%
11 | CCN(CC)CCCCNc1ncc2cc(-c3cc(OC)cc(OC)c3)c(NC(=O)NC(C)(C)C)nc2n1 | 100% | 100% | 100% | 100% |  |  |  |  | 100% | 100% | 100% | 100% | 100% | 100% | 100% |  |  |  |  |  | 
